Test results from US10934310B2, “Inhibitors of Bruton's tyrosine kinase and method of their use” (JANSSEN PHARMACEUTICA NV, priority 2015, dated 2021).

biological target: unphosphorylated-BTK kinase domain (UP-BTK), GST-tagged human BTK (389-659aa) (Homo sapiens (Human), UniProt Q06187); assay: BTK Kinase Lanthascreen Binding Assay; conditions: Lanthascreen binding, 60 minutes incubation; pIC50 = negative log of the IC50 in molar
Experimental: BTK Kinase Lanthascreen Binding Assay:
A BTK kinase lanthascreen binding assay monitors compound binding to unphosphorylated-BTK kinase domain (UP-BTK), by competing with a fluorescent labeled tracer. […] Data were analyzed using Xlfit™ version 5.3 from ID Business Solutions (Guildford), Microsoft Excel add-in. pIC50 refers to the negative log of the IC50 in molar.

Chain of unphosphorylated-BTK kinase domain (UP-BTK), GST-tagged human BTK (389-659aa) (Q06187 389-659): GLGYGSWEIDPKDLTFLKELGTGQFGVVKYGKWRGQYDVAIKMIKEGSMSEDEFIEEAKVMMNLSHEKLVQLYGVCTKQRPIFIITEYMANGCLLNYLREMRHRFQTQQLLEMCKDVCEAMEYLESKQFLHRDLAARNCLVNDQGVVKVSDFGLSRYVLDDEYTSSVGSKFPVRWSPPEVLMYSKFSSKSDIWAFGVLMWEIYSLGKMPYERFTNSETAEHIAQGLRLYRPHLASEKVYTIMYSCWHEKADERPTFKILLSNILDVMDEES

Q: Which “BTK_I_binding pIC50” value does the source give for `CC(=O)N[C@@H]1CC[C@H](NC(=O)c2sc3nccc4c3c2NC(=O)N4c2cnc(Oc3ccccc3)cc2C)C1` (single isomer, unassigned) [Example 391, N-((1S,3R)-3-Acetamidocyclopentyl)-5-(*S)-(4-methyl-6-phenoxypyridin-3-yl)-4-oxo-4,5-dihydro-3H-1-thia-3,5,8-triazaacenaphthylene-2-carboxamide] here?
A: 7.86

Q: How did the “BTK_I_binding pIC50” value turn out when `CC(=O)N[C@@H]1CC[C@@H](NC(=O)c2sc3nccc4c3c2NC(=O)N4c2cnc(Oc3ccccc3)cc2C)C1` (single isomer, unassigned) [Example 392, N-((1R,3R)-3-Acetamidocyclopentyl)-5-(*S)-(4-methyl-6-phenoxypyridin-3-yl)-4-oxo-4,5-dihydro-3H-1-thia-3,5,8-triazaacenaphthylene-2-carboxamide] was run?
A: 7.34

Q: How did the “BTK_I_binding pIC50” value turn out when `Cc1cc(OC2CCCC2)ncc1N1C(=O)Nc2c(C(=O)N[C@@H]3CC[C@H](N)C3)sc3nccc1c23` (single isomer, unassigned) [Example 394, N-((1R,3S)-3-Aminocyclopentyl)-5-(*S)-(6-(cyclopentyloxy)-4-methylpyridin-3-yl)-4-oxo-4,5-dihydro-3H-1-thia-3,5,8-triazaacenaphthylene-2-carboxamide] was run?
A: 6.70

Q: How did the “BTK_I_binding pIC50” value turn out when `CC(=O)N[C@H]1CC[C@H](NC(=O)c2sc3nccc4c3c2NC(=O)N4c2cnc(Oc3ccccc3)cc2C)C1` (single isomer, unassigned) [Example 395, N-((1S,3S)-3-Acetamidocyclopentyl)-5-(*S)-(4-methyl-6-phenoxypyridin-3-yl)-4-oxo-4,5-dihydro-3H-1-thia-3,5,8-triazaacenaphthylene-2-carboxamide] was run?
A: 6.66

Q: `Cc1cc(OCC(C)C)ncc1N1C(=O)Nc2c(C(=O)N[C@@H]3CCC[C@@H]3N)sc3nccc1c23` (single isomer, unassigned) [Example 397, N-((1R,2S)-2-Aminocyclopentyl)-5-(*S)-(6-isobutoxy-4-methylpyridin-3-yl)-4-oxo-4,5-dihydro-3H-1-thia-3,5,8-triazaacenaphthylene-2-carboxamide] was tested. Which “BTK_I_binding pIC50” value did it give?
A: 6.62

Q: `CCC(=O)N[C@H]1CC[C@H](NC(=O)c2sc3nccc4c3c2NC(=O)N4c2cnc(Oc3ccccc3)cc2C)C1` (single isomer, unassigned) [Example 399, 5-(*S)-(4-Methyl-6-phenoxypyridin-3-yl)-4-oxo-N-((1S,3S)-3-propionamidocyclopentyl)-4,5-dihydro-3H-1-thia-3,5,8-triazaacenaphthylene-2-carboxamide] was tested. Which “BTK_I_binding pIC50” value did it give?
A: 6.51

Q: `CC(=O)N[C@H]1CCC[C@H](NC(=O)c2sc3nccc4c3c2NC(=O)N4c2cnc(Oc3ccccc3)cc2C)C1` (single isomer, unassigned) [Example 400, N-((1S,3S)-3-Acetamidocyclohexyl)-5-(*S)-(4-methyl-6-phenoxypyridin-3-yl)-4-oxo-4,5-dihydro-3H-1-thia-3,5,8-triazaacenaphthylene-2-carboxamide] was tested. Which “BTK_I_binding pIC50” value did it give?
A: 6.46

Q: How did the “BTK_I_binding pIC50” value turn out when `CCC(=O)N[C@H]1CCC[C@H](NC(=O)c2sc3nccc4c3c2NC(=O)N4c2cnc(Oc3ccccc3)cc2C)C1` (single isomer, unassigned) [Example 402, 5-(*S)-(4-Methyl-6-phenoxypyridin-3-yl)-4-oxo-N-((1S,3S)-3-propionamidocyclohexyl)-4,5-dihydro-3H-1-thia-3,5,8-triazaacenaphthylene-2-carboxamide] was run?
A: 6.38

Q: For `CC(=O)N[C@H]1CC[C@@H](NC(=O)c2sc3nccc4c3c2NC(=O)N4c2cnc(Oc3ccccc3)cc2C)C1` (single isomer, unassigned) [Example 403, N-((1R,3S)-3-Acetamidocyclopentyl)-5-(*S)-(4-methyl-6-phenoxypyridin-3-yl)-4-oxo-4,5-dihydro-3H-1-thia-3,5,8-triazaacenaphthylene-2-carboxamide], which “BTK_I_binding pIC50” value is on record?
A: 6.26

Q: For `C=CC(=O)N[C@@H]1CCCC[C@H]1NC(=O)c1sc2nccc3c2c1NC(=O)N3c1cnc(CC(C)C)cc1C` (single isomer, unassigned) [Example 404, N-((1R,2R)-2-Acrylamidocyclohexyl)-5-(*S)-(6-isobutyl-4-methylpyridin-3-yl)-4-oxo-4,5-dihydro-3H-1-thia-3,5,8-triazaacenaphthylene-2-carboxamide], which “BTK_I_binding pIC50” value is on record?
A: 6.21

Q: For `Cc1cc(OCC(C)C)ncc1N1C(=O)Nc2c(C(=O)N[C@@H]3CC[C@H](N)C3)sc3nccc1c23` (single isomer, unassigned) [Example 405, N-((1R,3S)-3-Aminocyclopentyl)-5-(*S)-(6-isobutoxy-4-methylpyridin-3-yl)-4-oxo-4,5-dihydro-3H-1-thia-3,5,8-triazaacenaphthylene-2-carboxamide], which “BTK_I_binding pIC50” value is on record?
A: 6.16

Q: How did the “BTK_I_binding pIC50” value turn out when `CC(=O)NC1CCC[C@H](NC(=O)c2sc3nccc4c3c2NC(=O)N4c2cnc(Oc3ccccc3)cc2C)C1` (single isomer, unassigned) [Example 407, N-((1S,3R)-3-Acetamidocyclohexyl)-5-(*S)-(4-methyl-6-phenoxypyridin-3-yl)-4-oxo-4,5-dihydro-3H-1-thia-3,5,8-triazaacenaphthylene-2-carboxamide] was run?
A: 6.05

same assay, conditions: read-out: BTK_I_binding pIC50 (converted)

Q: For `CCC(=O)N[C@H]1CC[C@H](NC(=O)c2sc3nccc4c3c2NC(=O)N4c2ccc(Oc3ccccc3)nc2C)C1` (single isomer, unassigned) [Example 409, 5-(*S)-(2-Methyl-6-phenoxypyridin-3-yl)-4-oxo-N-((1S,3S)-3-propionamidocyclopentyl)-4,5-dihydro-3H-1-thia-3,5,8-triazaacenaphthylene-2-carboxamide], which IC50 is on record?
A: > 1 µM

Q: For `CC(=O)N[C@H]1CC[C@H](NC(=O)c2sc3nccc4c3c2NC(=O)N4c2ccc(Oc3ccccc3)nc2C)C1` (single isomer, unassigned) [Example 410, N-((1S,3S)-3-Acetamidocyclopentyl)-5-(*S)-(2-methyl-6-phenoxypyridin-3-yl)-4-oxo-4,5-dihydro-3H-1-thia-3,5,8-triazaacenaphthylene-2-carboxamide], which IC50 is on record?
A: > 1 µM

Q: Which IC50 does the source give for `C=CC(=O)N[C@@H]1CCC[C@H](NC(=O)c2sc3nccc4c3c2NC(=O)N4c2ccc(Oc3ccccc3)nc2C)C1` (single isomer, unassigned) [Example 411, N-((1S,3R)-3-Acrylamidocyclohexyl)-5-(*S)-(2-methyl-6-phenoxypyridin-3-yl)-4-oxo-4,5-dihydro-3H-1-thia-3,5,8-triazaacenaphthylene-2-carboxamide] here?
A: > 1 µM

Q: Which IC50 does the source give for `CCC(=O)N[C@@H]1CCC[C@H](NC(=O)c2sc3nccc4c3c2NC(=O)N4c2ccc(Oc3ccccc3)nc2C)C1` (single isomer, unassigned) [Example 412, 5-(*S)-(2-Methyl-6-phenoxypyridin-3-yl)-4-oxo-N-((1S,3R)-3-propionamidocyclohexyl)-4,5-dihydro-3H-1-thia-3,5,8-triazaacenaphthylene-2-carboxamide] here?
A: > 1 µM

Q: With `CC(=O)N[C@@H]1CCC[C@H](NC(=O)c2sc3nccc4c3c2NC(=O)N4c2ccc(Oc3ccccc3)nc2C)C1` (single isomer, unassigned) [Example 413, N-((1S,3R)-3-Acetamidocyclohexyl)-5-(*S)-(2-methyl-6-phenoxypyridin-3-yl)-4-oxo-4,5-dihydro-3H-1-thia-3,5,8-triazaacenaphthylene-2-carboxamide] as the compound, how does the IC50 read?
A: > 1 µM
